Experimental data from patent US20090069370A1, “AZACYCLYLISOQUINOLINONE AND ISOINDOLINONE DERIVATIVES AS HISTAMINE-3 ANTAGONISTS” (Wyeth, priority 2007, published 2009).

What follows are compounds tested against T1, Human Histamine H3 Receptor (Homo sapiens, UniProt Q9Y5N1) (assay: Methyl histamine binding in human histamine H3 receptor cell line). Conditions: membranes of stably transfected HEK293T cells; radioligand 1 nM; Ki from IC50 by Cheng-Prusoff.
T1 construct: expressed in transfected cells; host or cells: HEK293T cells, stably transfected; membrane preparation
Procedure: Evaluation of Methyl Histamine Binding in Human Histamine H3 Receptor Cell Line
The affinity of test compounds for the histamine 3 (H3) receptor is evaluated in the following manner. Stably transfected HEK293T cells are grown in DMEM containing 10% heat inactivated FBS and G-418 (500 ug/ml). Cells are scraped from the plate, transferred to centrifuge tubes, washed one time in PBS by centrifugation in a Sorvall RT7 Plus centrifuge (2000 rpm 10 minutes, 4° C.). The resulting pellets are stored at −80° C. until ready for use. Cells are re-suspended in buffer (50 mM Tris pH=7.5) and placed in a Dounce homogenizer, douncing ten times to homogenize cells. The homogenate is spun down by centrifugation (Sorvall RT7 Plus, 1800 rpm 10 minutes, 4° C.). The supernatant is placed in a Corex tube and spun down by centrifugation (Sorvall RC 5c Plus, 17,000 rpm 20 minutes, 4° C.). The pellet is resuspended in buffer (50 mM Tris, pH 7.5). Protein concentration (ug/ul) is determined using the Micro-BCA Protein Determination. The binding assay is set up in a 96 well microtiter plate in a total volume of 250 uL. Non-specific binding is determined in the presence of 10 uM clobenpropit. The final radioligand concentration is 1 nM. The test compound is serially diluted using the Beckman Biomek2000 to a final approximate range of 100 uM to 100 pM. Membranes are suspended in buffer, homogenized in 2 bursts of ten seconds using a Vitris mechanical homogenizer set at power setting 5. Ten μg of membranes are added to each well. Following a one hour incubation at 30° C., the reaction is terminated by the addition of ice cold buffer and rapid filtration with a Packard Filtermate Harvester through a GF/B filter pre-soaked with 1% PEI for one hour. The plate is dried for one hour at 37° C. and 60 μL Microscint Scintillant is added to each well. The CPM per well is measured on a Packard Top Count NXT. Ki values are determined in nM. The Ki is calculated from the IC50 (i.e. the concentration of competing ligand which displaces 50% of the specific binding of the radioligand). CPM values are expressed as % specific binding and plotted vs compound concentration. A curve is fitted using a four-parameter logistic fit and the IC50 value is determined. The Ki is calculated from this using the Cheng-Prusoff equation: […]=IC50/1+(L/Kd) where L=concentration of free radioligand used in the assay, and Kd is the dissociation constant of the radioligand for the receptor. L is determined for each experiment by counting an aliquot of the diluted radioligand (corresponding to that added to each well) and the Kd has previously been determined under identical conditions for this cell line/radioligand.

T1 sequence (Q9Y5N1 whole entry): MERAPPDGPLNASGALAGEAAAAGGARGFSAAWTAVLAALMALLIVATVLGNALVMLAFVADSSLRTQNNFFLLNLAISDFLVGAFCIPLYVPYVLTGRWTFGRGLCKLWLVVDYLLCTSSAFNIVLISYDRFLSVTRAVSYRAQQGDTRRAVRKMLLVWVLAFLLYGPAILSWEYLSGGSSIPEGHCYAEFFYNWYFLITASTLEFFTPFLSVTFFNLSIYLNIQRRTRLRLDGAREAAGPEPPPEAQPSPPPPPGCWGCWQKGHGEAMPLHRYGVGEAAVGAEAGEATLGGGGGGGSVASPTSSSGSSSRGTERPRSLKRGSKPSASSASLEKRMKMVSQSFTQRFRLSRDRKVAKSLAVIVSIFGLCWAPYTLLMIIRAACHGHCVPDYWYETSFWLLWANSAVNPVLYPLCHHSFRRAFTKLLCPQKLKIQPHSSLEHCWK

Question: `O=C(c1ccc(-c2ccc3c(c2)CCN([C@@H]2CCN(C4CCCC4)C2)C3=O)cc1)N1CCCC1` [Example 43, 2-[(3R)-1-cyclopentylpyrrolidin-3-yl]-6-[4-(pyrrolidin-1-ylcarbonyl)phenyl]-3,4-dihydroisoquinolin-1(2H)-one] was tested. Which Ki did it give?
Answer: Its Ki is no more than 10 nM.

Question: With `CNC(=O)c1ccc(-c2ccc3c(c2)CCN([C@@H]2CCN(C4CCC4)C2)C3=O)cc1` [Example 44, 4-{2-[(3R)-1-cyclobutylpyrrolidin-3-yl]-1-oxo-1,2,3,4-tetrahydroisoquinolin-6-yl}-N-methylbenzamide] as the compound, how does the Ki read?
Answer: The Ki was no more than 10 nM.

Question: `CCNC(=O)c1ccc(-c2ccc3c(c2)CCN([C@@H]2CCN(C4CCC4)C2)C3=O)cc1` [Example 45, 4-{2-[(3R)-1-cyclobutylpyrrolidin-3-yl]-1-oxo-1,2,3,4-tetrahydroisoquinolin-6-yl}-N-ethylbenzamide] was tested. Which Ki did it give?
Answer: The Ki was no more than 10 nM.

Question: `CN(C)C(=O)c1ccc(-c2ccc3c(c2)CCN([C@@H]2CCN(C4CCC4)C2)C3=O)cc1` [Example 46, 4-{2-[(3R)-1-cyclobutylpyrrolidin-3-yl]-1-oxo-1,2,3,4-tetrahydroisoquinolin-6-yl}-N,N-dimethylbenzamide] was tested. Which Ki did it give?
Answer: The Ki was no more than 10 nM.

Question: Which Ki does the source give for `O=C(c1ccc(-c2ccc3c(c2)CCN([C@@H]2CCN(C4CCC4)C2)C3=O)cc1)N1CCCC1` [Example 47, 2-[(3R)-1-cyclobutylpyrrolidin-3-yl]-6-[4-(pyrrolidin-1-ylcarbonyl)phenyl]-3,4-dihydroisoquinolin-1(2H)-one] here?
Answer: Its Ki is no more than 10 nM.

Question: `O=C(c1ccc(-c2ccc3c(c2)CCN([C@@H]2CCN(C4CCC4)C2)C3=O)cc1F)N1CCCC1` [Example 48, 2-[(3R)-1-cyclobutylpyrrolidin-3-yl]-6-[3-fluoro-4-(pyrrolidin-1-ylcarbonyl)phenyl]-3,4-dihydroisoquinolin-1(2H)-one] was tested. Which Ki did it give?
Answer: The Ki was no more than 10 nM.

Question: `O=C(c1ccc(-c2ccc3c(c2)CCN([C@@H]2CCN(C4CCC4)C2)C3=O)cc1Cl)N1CCCC1` [Example 49, 6-[3-chloro-4-(pyrrolidin-1-ylcarbonyl)phenyl]-2-[(3R)-1-cyclobutylpyrrolidin-3-yl]-3,4-dihydroisoquinolin-1(2H)-one] was tested. Which Ki did it give?
Answer: The Ki was no more than 10 nM.

Question: Which Ki does the source give for `CN1CC[C@@H](N2CCc3cc(-c4ccc(C(=O)N5CCCC5)cc4)ccc3C2=O)C1` [Example 55, 2-[(3R)-1-methylpyrrolidin-3-yl]-6-[4-(pyrrolidin-1-ylcarbonyl)phenyl]-3,4-dihydroisoquinolin-1(2H)-one] here?
Answer: Its Ki is 50.1 to 100 nM.

Question: `CC(C)N1CC[C@@H](N2CCc3cc(-c4ccc(C(=O)N5CCCC5)cc4)ccc3C2=O)C1` [Example 56, 2-[(3R)-1-(1-methylethyl)pyrrolidin-3-yl]-6-[4-(pyrrolidin-1-ylcarbonyl)phenyl]-3,4-dihydroisoquinolin-1(2H)-one] was tested. Which Ki did it give?
Answer: The Ki was no more than 10 nM.

Question: With `O=C(c1ccc(-c2ccc3c(c2)CCN([C@@H]2CCN(C4CCCCC4)C2)C3=O)cc1)N1CCCC1` [Example 57, 2-[(3R)-1-cyclohexylpyrrolidin-3-yl]-6-[4-(pyrrolidin-1-ylcarbonyl)phenyl]-3,4-dihydroisoquinolin-1(2H)-one] as the compound, how does the Ki read?
Answer: The Ki was no more than 10 nM.

Question: For `O=C(c1ccc(-c2ccc3c(c2)CCN([C@@H]2CCN(CC4CC4)C2)C3=O)cc1)N1CCCC1` [Example 58, 2-[(3R)-1-(cyclopropylmethyl)pyrrolidin-3-yl]-6-[4-(pyrrolidin-1-ylcarbonyl)phenyl]-3,4-dihydroisoquinolin-1(2H)-one], which Ki is on record?
Answer: Its Ki is no more than 10 nM.

Question: How did the Ki turn out when `O=C(c1ccc(-c2ccc3c(c2)CCN([C@@H]2CCN(CC4CCCC4)C2)C3=O)cc1)N1CCCC1` [Example 59, 2-[(3R)-1-(cyclopentylmethyl)pyrrolidin-3-yl]-6-[4-(pyrrolidin-1-ylcarbonyl)phenyl]-3,4-dihydroisoquinolin-1(2H)-one] was run?
Answer: The Ki was 10.1 to 25 nM.

Question: How did the Ki turn out when `O=C(c1ccc(-c2ccc3c(c2)CCN([C@@H]2CCN(Cc4ccoc4)C2)C3=O)cc1)N1CCCC1` [Example 60, 2-[(3R)-1-(furan-3-ylmethyl)pyrrolidin-3-yl]-6-[4-(pyrrolidin-1-ylcarbonyl)phenyl]-3,4-dihydroisoquinolin-1(2H)-one] was run?
Answer: Its Ki is no more than 10 nM.

Question: For `O=C(c1ccc(-c2ccc3c(c2)CCN([C@@H]2CCN(Cc4ccco4)C2)C3=O)cc1)N1CCCC1` [Example 61, 2-[(3R)-1-(furan-2-ylmethyl)pyrrolidin-3-yl]-6-[4-(pyrrolidin-1-ylcarbonyl)phenyl]-3,4-dihydroisoquinolin-1(2H)-one], which Ki is on record?
Answer: Its Ki is greater than 100 nM.

Question: For `O=C(c1ccc(-c2ccc3c(c2)CCN([C@@H]2CCN(Cc4cccs4)C2)C3=O)cc1)N1CCCC1` [Example 62, 6-[4-(pyrrolidin-1-ylcarbonyl)phenyl]-2-[(3R)-1-(thiophen-2-ylmethyl)pyrrolidin-3-yl]-3,4-dihydroisoquinolin-1(2H)-one], which Ki is on record?
Answer: Its Ki is 25.1 to 50 nM.

Question: For `O=C(c1ccc(-c2ccc3c(c2)CCN(C2CCN(C4CCC4)CC2)C3=O)cc1)N1CCCC1` [Example 65, 2-(1-cyclobutylpiperidin-4-yl)-6-[4-(pyrrolidin-1-ylcarbonyl)phenyl]-3,4-dihydroisoquinolin-1(2H)-one], which Ki is on record?
Answer: Its Ki is no more than 10 nM.

Question: For `O=C(c1ccc(-c2ccc3c(c2)CCN(C2CCN(C4CCCC4)CC2)C3=O)cc1)N1CCCC1` [Example 66, 2-(1-cyclopentylpiperidin-4-yl)-6-[4-(pyrrolidin-1-ylcarbonyl)phenyl]-3,4-dihydroisoquinolin-1(2H)-one], which Ki is on record?
Answer: Its Ki is no more than 10 nM.

Question: How did the Ki turn out when `CC(C)N1CCC(N2CCc3cc(-c4ccc(C(=O)N5CCCC5)cc4)ccc3C2=O)CC1` [Example 67, 2-(1-isopropylpiperidin-4-yl)-6-[4-(pyrrolidin-1-ylcarbonyl)phenyl]-3,4-dihydroisoquinolin-1(2H)-one] was run?
Answer: The Ki was no more than 10 nM.

Question: How did the Ki turn out when `O=C(c1ccc(-c2ccc3c(c2)CCN([C@@H]2CCCN(C4CCC4)C2)C3=O)cc1)N1CCCC1` [Example 70, 2-[(3R)-1-cyclobutylpiperidin-3-yl]-6-[4-(pyrrolidin-1-ylcarbonyl)phenyl]-3,4-dihydroisoquinolin-1(2H)-one] was run?
Answer: Its Ki is 10.1 to 25 nM.

Question: How did the Ki turn out when `O=C(c1ccc(-c2ccc3c(c2)CCN([C@@H]2CCCN(C4CCCC4)C2)C3=O)cc1)N1CCCC1` [Example 71, 2-[(3R)-1-cyclopentylpiperidin-3-yl]-6-[4-(pyrrolidin-1-ylcarbonyl)phenyl]-3,4-dihydroisoquinolin-1(2H)-one] was run?
Answer: The Ki was 10.1 to 25 nM.

Question: `CC(C)N1CCC[C@@H](N2CCc3cc(-c4ccc(C(=O)N5CCCC5)cc4)ccc3C2=O)C1` [Example 72, 2-[(3R)-1-isopropylpiperidin-3-yl]-6-[4-(pyrrolidin-1-ylcarbonyl)phenyl]-3,4-dihydroisoquinolin-1(2H)-one] was tested. Which Ki did it give?
Answer: The Ki was greater than 100 nM.

Question: `C[C@H]1CCCN1C(=O)c1ccc(-c2ccc3c(c2)CCN([C@@H]2CCN(C4CCC4)C2)C3=O)c(F)c1` [Example 73, 2-[(3R)-1-cyclobutylpyrrolidin-3-yl]-6-(2-fluoro-4-{[(2S)-2-methylpyrrolidin-1-yl]carbonyl}phenyl)-3,4-dihydroisoquinolin-1(2H)-one] was tested. Which Ki did it give?
Answer: The Ki was no more than 10 nM.

Question: For `O=C(NC1CCC1)c1ccc(-c2ccc3c(c2)CCN([C@@H]2CCN(C4CCC4)C2)C3=O)c(F)c1` [Example 74, N-cyclobutyl-4-{2-[(3R)-1-cyclobutylpyrrolidin-3-yl]-1-oxo-1,2,3,4-tetrahydroisoquinolin-6-yl}-3-fluorobenzamide], which Ki is on record?
Answer: The Ki was no more than 10 nM.

Question: For `CNC(=O)c1ccc(-c2ccc3c(c2)CCN([C@@H]2CCN(C4CCC4)C2)C3=O)c(F)c1` [Example 75, 4-{2-[(3R)-1-cyclobutylpyrrolidin-3-yl]-1-oxo-1,2,3,4-tetrahydroisoquinolin-6-yl}-3-fluoro-N-methylbenzamide], which Ki is on record?
Answer: The Ki was no more than 10 nM.
